Data published in PMC3380923, “Structure Analysis of Entamoeba histolytica DNMT2 (EhMeth)” (PLoS ONE, 2012).

Target: T1, EhMeth (Entamoeba histolytica, UniProt Q6Q386)
T1 construct: gene meth; GST fusion from pGEX6-P3 in E. coli BL21(DE3), GST cleaved off with PreScission protease; one molecule per asymmetric unit
T1 sequence (Q6Q386 1-322): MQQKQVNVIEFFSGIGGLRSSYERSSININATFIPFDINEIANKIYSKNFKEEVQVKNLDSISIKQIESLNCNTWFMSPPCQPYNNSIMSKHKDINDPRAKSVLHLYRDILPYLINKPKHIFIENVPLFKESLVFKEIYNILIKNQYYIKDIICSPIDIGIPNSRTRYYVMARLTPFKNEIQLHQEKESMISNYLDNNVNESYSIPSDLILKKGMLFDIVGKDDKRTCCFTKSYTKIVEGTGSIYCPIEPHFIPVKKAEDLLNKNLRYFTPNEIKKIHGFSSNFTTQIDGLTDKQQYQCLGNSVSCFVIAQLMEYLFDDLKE
Experiment: X-ray crystal structure, […] Å
Details: co-crystallised with 150x molar excess AdoHcy, pH 6.5, 20 °C; cofactor-binding pocket

Nc1ncnc2c1ncn2[C@@H]1O[C@H](CSCC[C@H](N)C(=O)O)[C@@H](O)[C@H]1O [AdoHcy]
X-ray crystal structure, 2.15 Å: the crystal structure of the binary complex comprising EhMeth and AdoHcy is presented
